According to paper PMC11350868, “A Novel Bacitracin-like Peptide from Mangrove-Isolated Bacillus paralicheniformis NNS4-3 against MRSA and Its Genomic Insights” (Antibiotics, 2024):
Values after ≈ are worked out from the molar mass of the structure shown. Read-outs that look alike come from different tables or passages of the source.

Tests used:
MRSA strain 1096 = test: microbe, parasite or virus in culture; type: cell-based, Staphylococcus aureus; settings: strain 1096, 24 h
Procedure: (§1) The MIC and MBC of the purified peptide of NNS4-3 were determined against various strains of S. aureus. The broth microdilution method followed the guidance provided by the Clinical and Laboratory Standards Institute (CLSI). Pathogenic bacteria, such as S. aureus TISTR 517 and MRSA strains 142, 1096, and 2468, were used as test strains and cultured on MH agar at 37 °C for 18 h. A single colony of each tested bacterium was suspended in 0.85% NaCl until its turbidity reached an OD of 0.1 at 625 nm (1 × 10^8 CFU/mL). The bacterial cells were diluted to 5 × 10^6 CFU/mL using cation-adjusted Mueller Hinton broth (CAMHB). The diluted cell suspension (10 µL) was transferred to each well of a 96-well plate. With a total volume of 100 µL in each well, the purified AMP was added to each well to obtain final concentrations between 0.125 and 64 µg/mL. Standard antibiotics (vancomycin and cefoxitin) and antibiotic-free samples were used as positive and negative controls, respectively. The 96-well plate was incubated at 37 °C for 24 h. The experiment was carried out in triplicate for each strain. […] Subsequently, 100 µL of each dilution was spread on MH agar and then incubated at 37 °C for 24 h. The MBC was identified as the lowest concentration at which no bacterial colony growth was observed on the plate.

MRSA strain 142 = test: microbe, parasite or virus in culture; type: cell-based, Staphylococcus aureus; settings: strain 142, 24 h
Procedure: as §1

MRSA strain 2468 [1] = test: microbe, parasite or virus in culture; type: cell-based, Staphylococcus aureus; settings: strain 2468, 24 h
Procedure: as §1

S. aureus TISTR 517 [2] = test: microbe, parasite or virus in culture; type: cell-based, Staphylococcus aureus; settings: TISTR 517, 24 h
Procedure: as §1

MRSA strain 2468 [3] = test: Time-kill kinetics; type: cell-based, Staphylococcus aureus; settings: 4× MIC; CAMHB, 37 °C
Procedure: S. aureus TISTR 517 and MRSA strain 2468 were adjusted to a cell density of 5 × 10^5 CFU/mL with CAMHB for the initial treatment. […] The reactions were conducted at 37 °C, followed by spreading the total volume onto MH agar at specific time intervals (0–24 h). Subsequently, the spread plates were incubated at 37 °C for 24 h before counting the colonies. The bacterial reduction trends were presented with a log10 scale of viable cells (logCFU/mL) versus treatment duration. The bacterial cell reduction was determined within 24 h. Each experiment was conducted in triplicate on the 96-well plates. The presence of significant differences (p-value < 0.05) was assessed by two-way ANOVA, followed by the post hoc Tukey’s test for conducting multiple comparisons between treated and non-treated samples at each time interval.

MRSA strain 2468 [4] = test: SEM of treated cells (morphological changes); type: cell-based, Staphylococcus aureus; settings: 1× MIC, 18 h incubation, 20,000× magnification
Procedure: (§2) The treatment effect of NNS4-3 AMP on tested bacterial cells was investigated by observing morphological changes under SEM. S. aureus TISTR 517 and MRSA strain 2468 were precultured in MH broth for 18 h before being centrifuged to harvest the cell pellet. Cell pellets of both strains were washed with 0.85% sterile NaCl solution 3 times to remove exopolysaccharide. The washed cells were then dispersed in CAMHB to adjust cell turbidity to 0.1 OD at 625 nm. The prepared cells were diluted to 5 × 10^5 CFU/mL with CAMHB before being treated with NNS4-3 AMP. […] The sample for SEM micrography was prepared by fixing the bacterial sample in 2.5% glutaraldehyde in 0.1 M phosphate buffer pH 7.2 for 24 h before ethanol dehydration of the sample. The complete ethanol removal from the prepared sample was conducted by a critical point drying machine (Quorum Technologies Ltd., Lewes, East Sussex, UK).

S. aureus TISTR 517 [5] = test: SEM of treated cells (morphological changes); type: cell-based, Staphylococcus aureus; settings: 1× MIC, 18 h incubation, 20,000× magnification
Procedure: as §2

Proteinase K = target: T1, Proteinase K (Parengyodontium album, UniProt P06873); test: Proteolytic enzyme stability (residual antibacterial activity); type: in vitro ADME; settings: Proteinase K 1 mg/mL, AMP 10 µg/mL, agar well diffusion vs MRSA strain 2468, relative to non-treated sample, mean ± SD, triplicate
T1 construct: purchased Sigma-Aldrich
Procedure: (§3) The AMP was dissolved in sterile purified water and adjusted to a final concentration of 10 µg/mL. The sensitivity of the AMP to temperatures of 60, 80, and 100 °C as well as autoclaving at 121 °C for 15 and 30 min was evaluated. The sensitivity of the AMP to proteolytic enzymes with different digesting characteristics was studied by incubating with a concentration of 1 mg/mL of proteinase K, trypsin, and α-chymotrypsin (Sigma-Aldrich, Warren, MI, USA). Surfactant compatibility of the AMP was examined by exposing the sample to 1% SDS and 1% Triton X-100 (AppliChem GmbH, Darmstadt, Germany). The propensity of the AMP for acid and base hydrolysis was examined by adjusting the pH of the solution to 1.2, 4.5, 6.8, and 7.4. After incubation, the pH of the AMP solution was neutralized to 7.4 before being assessed for antimicrobial activity. Following all treatments, the antibacterial assay using agar well diffusion against the MRSA strain 2468 was conducted in triplicate. The stability profiles are presented as the percentage of the activity relative to the untreated conditions (mean ± SD) and statistical significance was determined by the Student’s t-test at a p-value < 0.05.

[6] = Surfactant stability (residual antibacterial activity); type: physicochemical; settings: AMP 10 µg/mL, agar well diffusion vs MRSA strain 2468, relative to non-treated sample, mean ± SD, triplicate
Procedure: as §3

[7] = Effect of pH on the stability (residual antibacterial activity); type: physicochemical; settings: AMP 10 µg/mL, mean ± SD, triplicate
Procedure: as §3

Trypsin = Trypsin 1 mg/mL, AMP 10 µg/mL, agar well diffusion vs MRSA strain 2468, relative to non-treated sample, mean ± SD, triplicate
Procedure: as §3

α-chymotrypsin = α-chymotrypsin (Bos taurus, UniProt P00766); settings: α-chymotrypsin 1 mg/mL, AMP 10 µg/mL, agar well diffusion vs MRSA strain 2468, relative to non-treated sample, mean ± SD, triplicate
Procedure: as §3

T1 sequence (P06873 106-384): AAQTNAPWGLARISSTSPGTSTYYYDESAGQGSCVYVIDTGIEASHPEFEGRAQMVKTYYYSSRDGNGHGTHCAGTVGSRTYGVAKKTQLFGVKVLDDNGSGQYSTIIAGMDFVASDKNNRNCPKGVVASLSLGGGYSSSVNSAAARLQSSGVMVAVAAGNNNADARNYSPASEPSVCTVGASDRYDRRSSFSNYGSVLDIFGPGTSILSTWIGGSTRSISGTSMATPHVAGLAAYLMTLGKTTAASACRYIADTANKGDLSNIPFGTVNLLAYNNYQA

CC(C)CC(NC(=O)C(N)CCCCN)C(=O)NC(CC(C)C)C(=O)NC(CCCCN)C(=O)NC(CC(=O)O)C(=O)NC(CC(C)C)C(=O)NC(Cc1ccccc1)C(=O)NC(Cc1c[nH]cn1)C(=O)NC(CC(=O)O)C(=O)NC(CC(N)=O)C(=O)O (single isomer, unassigned) [NNS4-3 AMP]
MBC (MRSA strain 1096): 4 µg/mL (≈ 3.22 µM) | MIC (MRSA strain 1096): 1 µg/mL (≈ 0.805 µM) | MBC (MRSA strain 142): 4 µg/mL (≈ 3.22 µM) | MIC (MRSA strain 142): 1 µg/mL (≈ 0.805 µM) | MBC (MRSA strain 2468 [1]): 4 µg/mL (≈ 3.22 µM) | MIC (MRSA strain 2468 [1]): 1 µg/mL (≈ 0.805 µM) | MBC (S. aureus TISTR 517 [2]): 64 µg/mL (≈ 51.5 µM) | MIC (S. aureus TISTR 517 [2]): 16 µg/mL (≈ 12.9 µM) | time of treatment to complete elimination of viable cells (MRSA strain 2468 [3]): ≤ 8 h | morphological changes under SEM (MRSA strain 2468 [4]): membrane disruption and pore formation | morphological changes under SEM (S. aureus TISTR 517 [5]): cellular lysis | % Residual Activity (Proteinase K; 1 h): 98.66 ± 1.68% | % Residual Activity (Proteinase K; 6 h): 99.19 ± 1.07% | % Residual Activity (Proteinase K; 12 h): 99.07 ± 3.08% | % Residual Activity ([6]; 1% SDS, 1 h): 87.00 ± 6.17 % | % Residual Activity ([6]; 1% SDS, 6 h): 86.69 ± 5.39 % | % Residual Activity ([6]; 1% SDS, 12 h): 86.25 ± 4.76 % | % Residual Activity ([6]; 1% Triton X-100, 1 h): 104.54 ± 4.96% | % Residual Activity ([6]; 1% Triton X-100, 12 h): 103.40 ± 3.82% | % Residual Activity ([7]; pH 1.2, 1 h, neutralized to pH 7.4 before agar well diffusion vs MRSA strain 2468, relative to non-treated sample): 98.12 ± 2.14% | % Residual Activity ([7]; pH 1.2, 6 h, neutralized to pH 7.4 before agar well diffusion vs MRSA strain 2468, relative to non-treated sample): 95.45 ± 0.79% | % Residual Activity ([7]; pH 1.2, 12 h, neutralized to pH 7.4 before agar well diffusion vs MRSA strain 2468, relative to non-treated sample): 94.14 ± 3.12% | % Residual Activity ([7]; pH 4.5, 1 h, neutralized to pH 7.4 before agar well diffusion vs MRSA strain 2468, relative to non-treated sample): 95.24 ± 3.29% | % Residual Activity ([7]; pH 4.5, 6 h, neutralized to pH 7.4 before agar well diffusion vs MRSA strain 2468, relative to non-treated sample): 99.64 ± 2.87% | % Residual Activity ([7]; pH 4.5, 12 h, neutralized to pH 7.4 before agar well diffusion vs MRSA strain 2468, relative to non-treated sample): 96.91 ± 2.99% | % Residual Activity ([7]; pH 6.8, 1 h, neutralized to pH 7.4 before agar well diffusion vs MRSA strain 2468, relative to non-treated sample): 98.87 ± 2.00% | % Residual Activity ([7]; pH 6.8, 6 h, neutralized to pH 7.4 before agar well diffusion vs MRSA strain 2468, relative to non-treated sample): 95.89 ± 5.00% | % Residual Activity ([7]; pH 6.8, 12 h, neutralized to pH 7.4 before agar well diffusion vs MRSA strain 2468, relative to non-treated sample): 92.54 ± 4.14% | % Residual Activity ([7]; pH 7.4, 1 h, agar well diffusion vs MRSA strain 2468, relative to non-treated sample): 97.80 ± 1.32% | % Residual Activity ([7]; pH 7.4, 6 h, agar well diffusion vs MRSA strain 2468, relative to non-treated sample): 94.82 ± 2.80% | % Residual Activity ([7]; pH 7.4, 12 h, agar well diffusion vs MRSA strain 2468, relative to non-treated sample): 93.29 ± 1.89% | % Residual Activity (Trypsin; 1 h): 95.57 ± 4.01% | % Residual Activity (Trypsin; 6 h): 95.66 ± 2.62% | % Residual Activity (Trypsin; 12 h): 93.81 ± 3.31% | % Residual Activity (α-chymotrypsin; 1 h): 96.65 ± 2.14% | % Residual Activity (α-chymotrypsin; 6 h): 95.15 ± 6.64% | % Residual Activity (α-chymotrypsin; 12 h): 97.06 ± 0.54%
